Measurements taken from patent US4767742A, “Hirudin-PA and its derivatives, process for manufacturing these and the use of these substances” (Plantorgan-Werk Heinrich G. F. Christensen, KG, priority 1984, dated 1988).

Key:
[1] = test system: other proteinases of the blood clotting cascade; assay: specificity against proteinases of the blood clotting cascade; format: biochemical
thrombin [2] = target: T1, thrombin (Homo sapiens, UniProt P00734); assay: dissociation constant of the complex with thrombin; format: binding; conditions: read-out: dissociations constant Ki of the complex with thrombin
thrombin [3] = target: T1, thrombin; assay: specific antithrombin activity; format: biochemical

Ki (thrombin [2])	Substance	inhibition of other proteinases of the blood clotting cascade [1]	specific antithrombin activity (thrombin [3])
~0.03 nM	hirudin	inhibits no other proteinases of the blood clotting cascade	–
0.04 nM	hirudin-PA	–	680-720 IU/mg
